Where two headings read alike, the source gives them in different places.
Assay: Pharmacokinetic measurements of H3B-6527 capsules in patients (trial NCT02834780), plasma LC-MS/MS
Assay type: in vivo, human
Conditions: human, plasma, oral; for AUC: read-out: AUC, geometric mean (CV%); for Cmax: read-out: Cmax, geometric mean (CV%)
Text: A description of the first in human clinical trial for H3B-6527 can be found at the ClinicalTrials.gov by searching for trial identifier NCT02834780. In summary, the trial included a study population having the following characteristics: Adult patients ≥18 years old with advanced HCC or ICC; Progression after at least one prior therapy; ECOG score of 0 or 1; Well compensated liver function; FGF19-positive (dose expansion phase only); Excluded if patients have significant active infections [except hepatitis B virus (HBV) and hepatitis C virus (HCV)], gastric or esophageal varices, or previous FGF19-FGFR4 targeted therapy.
Blood samples are collected at the planned time points from each patient and centrifuged. The plasma portion of each sample is then transferred to a K2EDTA tube, which is then shipped to a bioanalytical lab for concentration measurement using LC-MS/MS. The concentration data are then analyzed using Phoenix® WinNonlin software to obtain PK parameters. The obtained PK parameters are further summarized using analytical software.
Drug Administration and Dosage for Dose Escalation: H3B-6527 was administered orally QD or BID on a 21-day cycle. […] Patients in dose escalation phase were treated regardless of FGF19 status. Response determined by RECIST 1.1/modified RECIST every 6 weeks
Further collection and collation of the PK results of the trial of Example 2 at a later point in time are reflected in the following Table 5:
The results of further analysis of the PK data of the trial of Example 2 with the actual date and time of the dose administration and PK sampling after QC, an update from the results of a preliminary analysis with the nominal (i.e. planned) dosing/PK sampling date/time presented in Example 3, are reflected in the following Table 6. In this example the number of patients from which each PK parameter was calculated is shown, rather than the total number of patients receiving a particular dose and regimen as in Table 5.

[1] = 600 mg, 600 mg QD, fed, Day 8, Table 6, actual times after QC
[2] = 700 mg, 700 mg BID, fed, Day 1, Table 6, actual times after QC
[3] = 700 mg, 700 mg BID, fed, Day 8, Table 6, actual times after QC
[4] = 1000 mg, 1000 mg QD, fasted, Day 1, Table 6, actual times after QC
[5] = 1000 mg, 1000 mg QD, fasted, Day 8, Table 6, actual times after QC
[6] = 1000 mg, 1000 mg QD, fed, Day 1, Table 6, actual times after QC
[7] = 1000 mg, 1000 mg QD, fed, Day 8, Table 6, actual times after QC
[8] = 1400 mg, 1400 mg QD, fasted, Day 1, Table 6, actual times after QC
[9] = 1400 mg, 1400 mg QD, fasted, Day 8, Table 6, actual times after QC
[10] = 1400 mg, 1400 mg QD, fed, Day 1, Table 6, actual times after QC
[11] = 1400 mg, 1400 mg QD, fed, Day 8, Table 6, actual times after QC
[12] = 2000 mg, 2000 mg QD, fed, Day 1, Table 6, actual times after QC
[13] = 2000 mg, 2000 mg QD, fed, Day 8, Table 6, actual times after QC

SMILES: C=CC(=O)Nc1cc(N2CCN(CC)CC2)ccc1Nc1cc(N(C)C(=O)Nc2c(Cl)c(OC)cc(OC)c2Cl)ncn1 [H3B-6527, N-(2-((6-(3-(2,6-dichloro-3,5-dimethoxyphenyl)-1-methylureido)pyrimidin-4-yl)amino)-5-(4-ethylpiperazin-1-yl)phenyl)acrylamide]
- Tmax (600 mg, 600 mg QD, fed, Day 8, Table 5, nominal times, read-out: Tmax, median (min-max)): 4.52 h
- AUC [1]: 0.501 µg·h/mL
- Cmax [1]: 0.0996 µg/mL
- half-life (600 mg, 600 mg QD, fed, Day 8, Table 6, actual times after QC, read-out: Half-life, geometric mean (CV%) (converted)): 5.88 h
- Tmax (600 mg, 600 mg QD, fed, Day 8, Table 6, actual times after QC, read-out: Tmax, median (min-max)): 4.52 h
- Cmax (700 mg, 700 mg BID, fed, Day 1, Table 5, nominal times): 0.163 µg/mL
- half-life (700 mg, 700 mg BID, fed, Day 1, Table 5, nominal times, read-out: Half-life, geometric mean (CV%) (converted)): 2.1 h
- Tmax (700 mg, 700 mg BID, fed, Day 1, Table 5, nominal times, read-out: Tmax, median (min-max)): 2.02 h
- AUC [2]: 0.591 µg·h/mL
- Cmax [2]: 0.163 µg/mL
- half-life (700 mg, 700 mg BID, fed, Day 1, Table 6, actual times after QC, read-out: Half-life, geometric mean (CV%) (converted)): 2.13 h
- Tmax (700 mg, 700 mg BID, fed, Day 1, Table 6, actual times after QC, read-out: Tmax, median (min-max)): 2.02 h
- Cmax (700 mg, 700 mg BID, fed, Day 8, Table 5, nominal times): 0.167 µg/mL
- half-life (700 mg, 700 mg BID, fed, Day 8, Table 5, nominal times, read-out: Half-life, geometric mean (CV%) (converted)): 2.2 h
- Tmax (700 mg, 700 mg BID, fed, Day 8, Table 5, nominal times, read-out: Tmax, median (min-max)): 4.12 h
- AUC [3]: 0.639 µg·h/mL
- Cmax [3]: 0.167 µg/mL
- half-life (700 mg, 700 mg BID, fed, Day 8, Table 6, actual times after QC, read-out: Half-life, geometric mean (CV%) (converted)): 2.18 h
- Tmax (700 mg, 700 mg BID, fed, Day 8, Table 6, actual times after QC, read-out: Tmax, median (min-max)): 4.12 h
- Cmax (1000 mg, 1000 mg QD, fasted, Day 1, Table 5, nominal times): 0.146 µg/mL
- half-life (1000 mg, 1000 mg QD, fasted, Day 1, Table 5, nominal times, read-out: Half-life, geometric mean (CV%) (converted)): 4.5 h
- Tmax (1000 mg, 1000 mg QD, fasted, Day 1, Table 5, nominal times, read-out: Tmax, median (min-max)): 2.01 h
- AUC [4]: 0.854 µg·h/mL
- Cmax [4]: 0.225 µg/mL
- half-life (1000 mg, 1000 mg QD, fasted, Day 1, Table 6, actual times after QC, read-out: Half-life, geometric mean (CV%) (converted)): 4.48 h
- Tmax (1000 mg, 1000 mg QD, fasted, Day 1, Table 6, actual times after QC, read-out: Tmax, median (min-max)): 2.02 h
- Cmax (1000 mg, 1000 mg QD, fasted, Day 8, Table 5, nominal times): 0.197 µg/mL
- half-life (1000 mg, 1000 mg QD, fasted, Day 8, Table 5, nominal times, read-out: Half-life, geometric mean (CV%) (converted)): 4.5 h
- Tmax (1000 mg, 1000 mg QD, fasted, Day 8, Table 5, nominal times, read-out: Tmax, median (min-max)): 2.02 h
- AUC [5]: 0.839 µg·h/mL
- Cmax [5]: 0.187 µg/mL
- half-life (1000 mg, 1000 mg QD, fasted, Day 8, Table 6, actual times after QC, read-out: Half-life, geometric mean (CV%) (converted)): 4.84 h
- Tmax (1000 mg, 1000 mg QD, fasted, Day 8, Table 6, actual times after QC, read-out: Tmax, median (min-max)): 2 h
- Cmax (1000 mg, 1000 mg QD, fed, Day 1, Table 5, nominal times): 0.188 µg/mL
- half-life (1000 mg, 1000 mg QD, fed, Day 1, Table 5, nominal times, read-out: Half-life, geometric mean (CV%) (converted)): 4 h
- Tmax (1000 mg, 1000 mg QD, fed, Day 1, Table 5, nominal times, read-out: Tmax, median (min-max)): 5.05 h
- AUC [6]: 1.11 µg·h/mL
- Cmax [6]: 0.182 µg/mL
- half-life (1000 mg, 1000 mg QD, fed, Day 1, Table 6, actual times after QC, read-out: Half-life, geometric mean (CV%) (converted)): 3.94 h
- Tmax (1000 mg, 1000 mg QD, fed, Day 1, Table 6, actual times after QC, read-out: Tmax, median (min-max)): 6 h
- Cmax (1000 mg, 1000 mg QD, fed, Day 8, Table 5, nominal times): 0.199 µg/mL
- half-life (1000 mg, 1000 mg QD, fed, Day 8, Table 5, nominal times, read-out: Half-life, geometric mean (CV%) (converted)): 4.2 h
- Tmax (1000 mg, 1000 mg QD, fed, Day 8, Table 5, nominal times, read-out: Tmax, median (min-max)): 4.08 h
- AUC [7]: 0.796 µg·h/mL
- Cmax [7]: 0.177 µg/mL
- half-life (1000 mg, 1000 mg QD, fed, Day 8, Table 6, actual times after QC, read-out: Half-life, geometric mean (CV%) (converted)): 6.16 h
- Tmax (1000 mg, 1000 mg QD, fed, Day 8, Table 6, actual times after QC, read-out: Tmax, median (min-max)): 2 h
- half-life (1000 mg, following administration of 1000 mg (fasted), read-out: mean terminal half-life): 4 to 5 h
- Cmax (1400 mg, 1400 mg QD, fasted, Day 1, Table 5, nominal times): 0.136 µg/mL
- half-life (1400 mg, 1400 mg QD, fasted, Day 1, Table 5, nominal times, read-out: Half-life, geometric mean (CV%) (converted)): 5.3 h
- Tmax (1400 mg, 1400 mg QD, fasted, Day 1, Table 5, nominal times, read-out: Tmax, median (min-max)): 1 h
- AUC [8]: 0.4 µg·h/mL
- Cmax [8]: 0.136 µg/mL
- half-life (1400 mg, 1400 mg QD, fasted, Day 1, Table 6, actual times after QC, read-out: Half-life, geometric mean (CV%) (converted)): 6.13 h
- Tmax (1400 mg, 1400 mg QD, fasted, Day 1, Table 6, actual times after QC, read-out: Tmax, median (min-max)): 1 h
- Cmax (1400 mg, 1400 mg QD, fasted, Day 8, Table 5, nominal times): 0.362 µg/mL
- half-life (1400 mg, 1400 mg QD, fasted, Day 8, Table 5, nominal times, read-out: Half-life, geometric mean (CV%) (converted)): 4.9 h
- Tmax (1400 mg, 1400 mg QD, fasted, Day 8, Table 5, nominal times, read-out: Tmax, median (min-max)): 2.1 h
- AUC [9]: 1.26 µg·h/mL
- Cmax [9]: 0.362 µg/mL
- half-life (1400 mg, 1400 mg QD, fasted, Day 8, Table 6, actual times after QC, read-out: Half-life, geometric mean (CV%) (converted)): 4.56 h
- Tmax (1400 mg, 1400 mg QD, fasted, Day 8, Table 6, actual times after QC, read-out: Tmax, median (min-max)): 2.1 h
- Cmax (1400 mg, 1400 mg QD, fed, Day 1, Table 5, nominal times): 0.904 µg/mL
- half-life (1400 mg, 1400 mg QD, fed, Day 1, Table 5, nominal times, read-out: Half-life, geometric mean (CV%) (converted)): 4.1 h
- Tmax (1400 mg, 1400 mg QD, fed, Day 1, Table 5, nominal times, read-out: Tmax, median (min-max)): 5 h
- AUC [10]: 5.67 µg·h/mL
- Cmax [10]: 0.904 µg/mL
- half-life (1400 mg, 1400 mg QD, fed, Day 1, Table 6, actual times after QC, read-out: Half-life, geometric mean (CV%) (converted)): 4.13 h
- Tmax (1400 mg, 1400 mg QD, fed, Day 1, Table 6, actual times after QC, read-out: Tmax, median (min-max)): 5 h
- Cmax (1400 mg, 1400 mg QD, fed, Day 8, Table 5, nominal times): 0.827 µg/mL
- half-life (1400 mg, 1400 mg QD, fed, Day 8, Table 5, nominal times, read-out: Half-life, geometric mean (CV%) (converted)): 4.4 h
- Tmax (1400 mg, 1400 mg QD, fed, Day 8, Table 5, nominal times, read-out: Tmax, median (min-max)): 5.86 h
- AUC [11]: 5.45 µg·h/mL
- Cmax [11]: 0.827 µg/mL
- half-life (1400 mg, 1400 mg QD, fed, Day 8, Table 6, actual times after QC, read-out: Half-life, geometric mean (CV%) (converted)): 4.75 h
- Tmax (1400 mg, 1400 mg QD, fed, Day 8, Table 6, actual times after QC, read-out: Tmax, median (min-max)): 5.86 h
- Cmax (2000 mg, 2000 mg QD, fed, Day 1, Table 5, nominal times): 0.525 µg/mL
- half-life (2000 mg, 2000 mg QD, fed, Day 1, Table 5, nominal times, read-out: Half-life, geometric mean (CV%) (converted)): 5.5 h
- Tmax (2000 mg, 2000 mg QD, fed, Day 1, Table 5, nominal times, read-out: Tmax, median (min-max)): 2 h
- AUC [12]: 2.95 µg·h/mL
- Cmax [12]: 0.54 µg/mL
- half-life (2000 mg, 2000 mg QD, fed, Day 1, Table 6, actual times after QC, read-out: Half-life, geometric mean (CV%) (converted)): 4.14 h
- Tmax (2000 mg, 2000 mg QD, fed, Day 1, Table 6, actual times after QC, read-out: Tmax, median (min-max)): 2.1 h
- Cmax (2000 mg, 2000 mg QD, fed, Day 8, Table 5, nominal times): 0.451 µg/mL
- half-life (2000 mg, 2000 mg QD, fed, Day 8, Table 5, nominal times, read-out: Half-life, geometric mean (CV%) (converted)): 5.7 h
- Tmax (2000 mg, 2000 mg QD, fed, Day 8, Table 5, nominal times, read-out: Tmax, median (min-max)): 2.5 h
- AUC [13]: 2.58 µg·h/mL
- Cmax [13]: 0.502 µg/mL
- half-life (2000 mg, 2000 mg QD, fed, Day 8, Table 6, actual times after QC, read-out: Half-life, geometric mean (CV%) (converted)): 4.98 h
- Tmax (2000 mg, 2000 mg QD, fed, Day 8, Table 6, actual times after QC, read-out: Tmax, median (min-max)): 4 h
- Tmax (fasted, read-out: median plasma tmax): 1 to 3 h

Source: patent publication US20230172867A1, “A METHOD FOR TREATING CANCER WITH AN ORAL DOSAGE FORM OF AN FGFR4 INHIBITOR” (Eisai R&D Management Co., Ltd., priority 2020, published 2023)
